PubChem BioAssay (NCI)
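Briefly, cells in 96-well plates were exposed to five compound concentrations for 48 h, and endpoints were estimated by linear interpolation. GI50 marks 50% less growth. TGI is the concentration that stops growth completely.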

Tests used:
Assay in all cases: DTP human tumour cell line panel, 48 h
UACC-257 melanoma = system: UACC-257 melanoma
SN12C renal = system: SN12C renal
SF-268 CNS = system: SF-268 CNS
IGROV1 ovarian = system: IGROV1 ovarian
COLO 205 colon = system: COLO 205 colon
K-562 leukemia = system: K-562 leukemia
HCT-116 colon = system: HCT-116 colon
HCC-2998 colon = system: HCC-2998 colon
OVCAR-3 ovarian = system: OVCAR-3 ovarian
MDA-MB-435 = system: MDA-MB-435

Row | Compound | TGI (UACC-257 melanoma) [µM] | TGI (SN12C renal) [µM] | TGI (SF-268 CNS) [µM] | TGI (IGROV1 ovarian) [µM] | TGI (COLO 205 colon) [µM] | TGI (K-562 leukemia) [µM] | TGI (HCT-116 colon) [µM] | TGI (HCC-2998 colon) [µM] | TGI (OVCAR-3 ovarian) [µM] | TGI (MDA-MB-435) [µM] | GI50 (UACC-257 melanoma) [µM] | GI50 (MDA-MB-435) [µM] | GI50 (HCC-2998 colon) [µM] | GI50 (SN12C renal) [µM] | GI50 (SF-268 CNS) [µM] | GI50 (IGROV1 ovarian) [µM] | GI50 (COLO 205 colon) [µM] | GI50 (K-562 leukemia) [µM] | GI50 (HCT-116 colon) [µM] | GI50 (OVCAR-3 ovarian) [µM]
1 | CCCC(=O)OCC(O)CO (stereo not drawn) | > 5000 | > 5000 | > 5000 | > 5000 | > 5000 | > 5000 | > 5000 | – | – | – | – | – | – | – | – | – | – | – | – | –
2 | C[C@H](O)C(=O)SC[C@H](NC(=O)CC[C@@H](N)C(=O)O)C(=O)NCC(=O)O | > 100 | > 100 | > 100 | > 100 | > 100 | > 100 | > 100 | > 100 | > 100 | – | – | – | – | – | – | – | – | – | – | –
3 | Cc1ccc(S(=O)(=O)NCCSS(=O)(=O)c2ccc(C)cc2)cc1 | > 100 | 86.3 | 46.3 | – | > 100 | > 100 | 28.3 | > 100 | – | 52 | – | – | – | – | – | – | – | – | – | –
4 | Oc1ccc2ccccc2c1Cc1c(O)ccc2ccccc12 | 48.9 | 34.6 | 31.1 | 13.4 | 36.5 | 32.8 | 34.4 | 40.6 | 28.4 | 31.5 | – | – | – | – | – | – | – | – | – | –
5 | O=C(/N=C/c1c(O)c2ccccc2oc1=O)NC1CCCCC1 | > 100 | > 100 | > 100 | > 100 | > 100 | – | > 100 | > 100 | – | – | – | – | – | – | – | – | – | – | – | –
6 | COc1c2ccoc2c(S(=O)(=O)Nc2ccc(Cl)cc2)c2oc(C)cc(=O)c12 | > 100 | > 100 | > 100 | > 100 | > 100 | > 100 | > 89.2 | > 100 | > 100 | – | – | – | – | – | – | – | – | – | – | –
7 | Cc1cc(-c2nc3cc(F)ccc3s2)ccc1NC(=O)C(C)N (stereo not drawn) | 8.88 | 9.49 | 9.5 | 4.76 | 13.6 | 14.5 | 6.57 | 3.57 | 7.32 | 10.5 | – | – | – | – | – | – | – | – | – | –
8 | CN(C)CCC(C(=O)C(C)(C)C)c1ccccn1 (stereo not drawn) | > 100 | > 100 | > 100 | > 100 | > 100 | > 100 | > 100 | > 100 | 93.6 | > 100 | – | – | – | – | – | – | – | – | – | –
9 | CC(O)=NC(Cc1ccc2ccccc2c1)C(O)=NC(Cc1ccc(Cl)cc1)C(O)=NC(Cc1c[nH]c2ccccc12)C(O)=NC(CO)C(O)=NC(Cc1ccc(O)cc1)C(O)=NC(CCCN=C(N)N)C(O)=NC(CC(C)C)C(O)=NC(CCCN=C(N)N)C(=O)N1CCCC1C(O)=NC(C)C(=N)O (stereo not drawn) | > 100 | > 100 | > 100 | > 100 | > 100 | > 100 | – | > 100 | > 100 | > 100 | – | – | – | – | – | – | – | – | – | –
10 | CCCCOc1ccc(S(=O)(=O)/N=C(\NN)Nc2ccc(Cl)cc2)cc1 | 68.7 | 38.6 | 33 | 60.2 | 38.5 | > 100 | 42.9 | – | 46.8 | – | – | – | – | – | – | – | – | – | – | –
11 | CO[C@]12C[C@H](CNC(=O)c3cc(Br)c(Br)[nH]3)O[C@H]1NC(=O)N2 | > 100 | > 100 | > 100 | > 100 | > 100 | > 100 | > 100 | > 100 | > 100 | > 100 | – | – | – | – | – | – | – | – | – | –
12 | CCOC(=O)[C@H]1C[C@]23CN(C(=O)OC(C)(C)C)CC[C@H]2CCC2(SCCCS2)[C@@H]3N1C | 77.5 | 44.3 | > 100 | > 100 | > 100 | > 100 | > 100 | 65.4 | > 100 | > 100 | – | – | – | – | – | – | – | – | – | –
13 | NC1=NS(=O)(=O)Nc2nc(-c3cccs3)[nH]c21 | – | > 100 | > 100 | > 100 | > 100 | > 100 | > 100 | > 100 | > 100 | – | – | – | – | – | – | – | – | – | – | –
14 | NCCc1ccc2c(c1)C(=O)c1c(O)ccc(O)c1C2=O | > 100 | – | 25.3 | > 100 | > 100 | > 64.2 | > 40.3 | > 100 | 5.66 | > 100 | – | – | – | – | – | – | – | – | – | –
15 | OC1(c2ccc3ccccc3c2)c2ccc3ccccc3c2C2=NCCN21 (stereo not drawn) | > 100 | > 100 | > 100 | > 100 | > 100 | > 100 | > 100 | > 100 | > 100 | > 100 | – | – | – | – | – | – | – | – | – | –
16 | O=C1N[C@@H]2c3c(Br)sc(Br)c3C(=O)[C@@H]2N1 | 8.19 | 14.5 | 13.8 | 7.16 | 12.1 | > 100 | 3.88 | 3.42 | 6.72 | 4.83 | – | – | – | – | – | – | – | – | – | –
17 | COc1ccc2c(c1)CC[C@@H]1[C@@H]2CC[C@]2(C)[C@@H](O)/C(=C/c3ccncc3)C[C@@H]12 | 35.6 | 61.3 | 28.2 | 30 | 16 | – | 30 | 23.6 | 39.3 | 27.3 | – | – | – | – | – | – | – | – | – | –

Row | Compound | TGI (UACC-257 melanoma) [µM] | TGI (SN12C renal) [µM] | TGI (SF-268 CNS) [µM] | TGI (IGROV1 ovarian) [µM] | TGI (COLO 205 colon) [µM] | TGI (K-562 leukemia) [µM] | TGI (HCT-116 colon) [µM] | TGI (HCC-2998 colon) [µM] | TGI (OVCAR-3 ovarian) [µM] | TGI (MDA-MB-435) [µM] | GI50 (UACC-257 melanoma) [µM] | GI50 (MDA-MB-435) [µM] | GI50 (HCC-2998 colon) [µM] | GI50 (SN12C renal) [µM] | GI50 (SF-268 CNS) [µM] | GI50 (IGROV1 ovarian) [µM] | GI50 (COLO 205 colon) [µM] | GI50 (K-562 leukemia) [µM] | GI50 (HCT-116 colon) [µM] | GI50 (OVCAR-3 ovarian) [µM]
18 | COc1cc(NCc2ccc3n2-c2ccccc2OC3)cc(OC)c1OC | 64.1 | 45.5 | > 100 | 70.5 | 25.5 | 27.6 | > 100 | 51.6 | 75.5 | 33.8 | – | – | – | – | – | – | – | – | – | –
19 | CC[N+](CC)(CC)/C(=N/S(=O)(=O)c1cc(C)c(Cl)cc1S)[N-]S(=O)(=O)c1ccc(Cl)cc1 | > 100 | – | > 100 | > 100 | – | > 100 | 65.6 | > 100 | > 100 | > 100 | – | – | – | – | – | – | – | – | – | –
20 | C=CCC1=CC2(OC)C(=O)C(OC)(OC)C1C1C(OC)(OC)C(=O)C(OC)=CC12CC=C (stereo not drawn) | > 100 | > 100 | > 100 | > 100 | > 100 | > 100 | > 100 | > 100 | > 100 | > 100 | – | – | – | – | – | – | – | – | – | –
21 | CCOC(=O)c1c(N2CCOCC2)[nH]c(=O)c(C(c2ccc(Cl)c([N+](=O)[O-])c2)c2c(O)c(C(=O)OCC)c(N3CCOCC3)[nH]c2=O)c1O | > 100 | 51 | > 100 | – | > 100 | > 100 | 63.6 | > 100 | 35.5 | > 100 | – | – | – | – | – | – | – | – | – | –
22 | NC(N)=N/N=C/c1ccc(O)c(C(=O)O)c1 | > 100 | – | > 100 | > 100 | > 100 | > 100 | > 100 | > 100 | > 100 | > 100 | – | – | – | – | – | – | – | – | – | –
23 | CCOc1ccc2c(c1)NC(=O)C(C1OC(c3ccccc3)=CC1=O)S2 (stereo not drawn) | > 100 | 77.9 | 63.1 | 53.2 | 28.1 | 68.7 | 88.2 | 37.7 | 50.1 | 44.4 | – | – | – | – | – | – | – | – | – | –
24 | CCCc1ccc(OCC(=O)N/N=C/c2c(-c3ccccc3)[nH]c3ccccc23)cc1 | 33.7 | 32.1 | > 100 | 65.8 | 14.3 | 23.1 | 27.7 | 14.1 | 95.2 | 8.74 | – | – | – | – | – | – | – | – | – | –
25 | O=C(CCO)OCCCCCC/C=C\CCCCCC/C=C\CCCCCCCCOC(=O)CCO | 30.9 | 31 | 32.5 | 31.2 | > 100 | 30.4 | 29.9 | 30.1 | 41.2 | 45.7 | – | – | – | – | – | – | – | – | – | –
26 | C[C@]12CC[C@H](O)CC1=CC[C@@H]1[C@@H]2CC[C@]2(C)C(=O)CC[C@@H]12 | > 100 | > 100 | > 100 | – | > 100 | – | > 100 | > 100 | > 100 | > 100 | – | – | – | – | – | – | – | – | – | –
27 | Cc1cc(=O)[nH]c2c3c(ccc12)OC(C)(C)C=C3 | > 100 | > 49.6 | > 100 | > 100 | 12.2 | > 100 | > 50.1 | > 96.1 | > 27.7 | 4.9 | – | – | – | – | – | – | – | – | – | –
28 | CC(C)(C)c1cc(C(C)(C)C)c2sc(=S)oc2c1O | 27.4 | 19.7 | 19.8 | 24.6 | 29.6 | 32.9 | 21 | – | 17.5 | 26.8 | – | – | – | – | – | – | – | – | – | –
29 | FC(F)(F)C1=NC(=NNc2nnc(-c3ccccc3)c(-c3ccccc3)n2)N=C(C(F)(F)F)C1 | > 100 | > 100 | > 100 | > 100 | 61.4 | > 100 | > 93.6 | > 88.9 | > 100 | – | – | – | – | – | – | – | – | – | – | –
30 | O=c1cc(-c2nc3ccccc3[nH]2)[nH]c2nc(-c3nc4ccccc4[nH]3)cc(-c3ccc(Cl)cc3)c12 | 69.3 | 46.9 | 47.5 | 25.5 | 24.6 | 68.8 | 35.2 | – | 63.4 | 35.3 | – | – | – | – | – | – | – | – | – | –
31 | COc1ccc(-n2cc(-c3ccc(OC)c(OC)c3)nc2SCc2ccccc2)cc1Cl | 38.3 | > 100 | > 100 | > 100 | 45.4 | 39.3 | > 100 | 45.5 | > 100 | > 100 | 7.23 | 27.8 | 19.3 | 38.1 | 30.4 | 12.9 | 19 | 9.05 | 9.43 | 20.6
32 | Cc1onc(-c2c(F)cccc2Cl)c1C(=O)N[C@@H]1C(=O)N2[C@@H]1SC(C)(C)[C@@H]2C(=O)O | > 100 | > 100 | > 100 | > 100 | > 100 | > 100 | > 100 | – | > 100 | > 100 | – | – | – | – | – | – | – | – | – | –
33 | O=C(Nc1ccc(F)cc1)c1cc2ccc(O)cc2oc1=Nc1ccccc1F | > 100 | > 100 | > 100 | 36.1 | > 100 | > 100 | > 100 | > 100 | > 100 | > 100 | – | – | – | – | – | – | – | – | – | –
